# Tests used:
# [1] = tested on: Gram Negative bacteria; assay: Surface Antimicrobial Kill Testing, normalized to triclosan internal standard, gram negative; assay type: cell-based, K. pneumonia (Kp) / P. aeruginosa (Pa); conditions: for antimicrobial benefit in words, gram-negative: Table 2B formulas
# Method: (§1) Inoculum is prepared by streaking microorganism onto a Tryptic Soy Agar (TSA) plate and incubating for 24 h at 33° C. Plated bacteria is resuspended in saline until the transmittance percentage falls within the accepted range for ˜10^8 cfu/mL. For K. pneumonia (Kp) and P. aeruginosa (Pa), this is 31.00-33.00% T. For S. aureus (Sa) this is 23.00-25.00% T. A 10× concentration is made by spinning down the prepared inoculum, removing the supernatant saline from the bacterial pellet, then resuspending the pellet in 1/10th of the original volume of saline. The final inoculum is prepared with 5% of “soil” in the form of Fetal Bovine Serum (FBS). A 18×18 mm sterile glass coverslip is placed into an appropriate container (e.g., petri dish). 20 μL of prepared inoculum is added to the glass coverslip. Inoculum is then air-dried for 30 minutes in a 36° C. incubator. After drying, 40 μL of test sample is added on top of the dried inoculum. This is incubated at room temperature for the desired contact time. 5 mL of neutralizing media (Modified Letheen Broth+Tween+Lecithin (MLBTL)) is added to the coverslip and shaken on an orbital shaker for 5 minutes to ensure proper neutralization and extraction. Viability is then assessed of the neutralized and extracted sample by traditional/alternative microbiological techniques. The normalized antimicrobial activity reported in the performance examples below was generated from detection time data obtained as described in the Surface Antimicrobial Kill Test Method. To account for day-to-day variability an internal standard was tested with each series. The internal standard was a composition of 0.25 wt % Triclosan, Sigma Aldrich (St. Louis, MO, USA; CAS #3380-34-5, 97.0-103.0% (active substance, GC)), 50 wt % DMSO, and 49.75 wt % H2O, with a final solution pH of 7.7. Normalized activity is reported following the equation 1 below. Normalized Activity=(αΔDT−βΔDT)/(γΔDT−βΔDT) equation 1. where, αΔDT is the average detection time of the antimicrobial compound, and γΔDT is the average detection time of the reference triclosan internal standard, and βΔDT is the average detection time of the background unperturbed bacteria. Modified amino acids of the present disclosure were tested as aqueous solutions in the Surface Antimicrobial Kill Testing Method above. To prepare test solutions modified amino acids were first dissolved in the appropriate solvent. Second the selected surfactant is added to the mixture. After vortex (1 min, Vortex-2 Genie, vortex speed 8) mixing, the samples were then diluted with ½ portion of reverse osmosis water (RO water, Millipore Direct-Q™, pH 6). The aqueous solution was then vortexed (1 min, Vortex-2 Genie, vortex speed 8), to which the second ½ portion of water is added. The pH of the solution was then adjusted to the target pH using either 1N HCl, Glacial Acetic Acid, or 1N NaOH. The final solution was then vortexed (1 min, Vortex-2 Genie, vortex speed 8). An example batch sheet is provided below in Table 1. In Performance Examples 1-5 below, formulations comprising solvent, surfactant, and antimicrobial agents according to the present disclosure (e.g., based on modified amino acid amides), are evaluated via microbial surface kill tests according to the Surface Antimicrobial Kill Testing Method provided above. After treatment, microbial growth is referenced and reported to a triclosan sample and unaltered microbes according to the Normalization of Antimicrobial Activity provided above.
# [2] = tested on: Gram Positive bacteria; assay: Surface Antimicrobial Kill Testing, normalized to triclosan internal standard, gram positive; assay type: cell-based, S. aureus (Sa); conditions: for antimicrobial benefit in words, gram-positive: Table 2B formulas
# Method: as §1
# [3] = Table 2B, compound 0.5 wt %, DPGME 5 wt %, Surfonic L24-9 1 wt %, 0.1M Acetic acid buffer pH 4.5
# [4] = Table 3B, compound 0.5 wt %, DPGME 5 wt %, Surfonic L24-9 1 wt %, 0.1M Acetic acid buffer pH 4.5
# [5] = 0.5 wt %, 5 wt % DPGME, water, pH 4.5, EH6 1 wt %
# [6] = 0.5 wt %, 5 wt % DPGME, water, pH 4.5, Miranol Ultra 1 wt %
# [7] = 0.5 wt %, 5 wt % DPGME, water, pH 4.5, Plantaren 2000 1 wt %
# [8] = 0.5 wt %, 5 wt % DPGME, water, pH 4.5, Surfonic L24-9 1 wt %
# [9] = 0.5 wt %, 5 wt % DPGME, water, pH 4.5, Tween 80 1 wt %
# [10] = 0.5 wt %, 5 wt % DPGME, water, pH 9, Miranol Ultra 1 wt %
# [11] = 0.5 wt %, 5 wt % DPGME, water, pH 9, SLS 1 wt %
# [12] = 0.5 wt %, 5 wt % DPGME, water, pH 9, Surfonic L24-9 1 wt %
# [13] = Table 4, variety of surfactants
smiles,measurement,setting,value
"CN(C)C(=O)[C@H](N)Cc1ccccc1 [Comparative Example C1, reference compound]","antimicrobial benefit in words, gram-negative",[1],fail to show any meaningful benefit
same,Gram Negative Referenced Microbial Activity,[1]; [3],0.2
same,"antimicrobial benefit in words, gram-positive",[2],fail to show any meaningful benefit
same,Gram Positive Referenced Microbial Activity,[2]; [3],0.1
CCCCCCNC(=O)[C@@H](N)Cc1c[nH]c2ccccc12 [Synthetic Example 1],Gram Negative Referenced Microbial Activity,[1]; [4],2.2
same,Gram Positive Referenced Microbial Activity,[2]; [4],0.3
CCCCCCCCNC(=O)[C@@H](N)Cc1c[nH]c2ccccc12 [Synthetic Example 2],Gram Negative Referenced Microbial Activity,[1]; [5],≥4.9
same,Gram Negative Referenced Microbial Activity,[1]; [6],≥4.9
same,Gram Negative Referenced Microbial Activity,[1]; [7],≥4.9
same,Gram Negative Referenced Microbial Activity,[1]; [8],2.5
same,Gram Negative Referenced Microbial Activity,[1]; [9],≥4.9
same,Gram Negative Referenced Microbial Activity,[1]; [10],0.1
same,Gram Negative Referenced Microbial Activity,[1]; [11],0.0
same,Gram Negative Referenced Microbial Activity,[1]; [12],0.7
same,Gram Negative Referenced Microbial Activity,[1]; [4],2.5
same,pH cutoff of antimicrobial efficacy,"[1]; Table 4, gram negative and gram positive",cutoff at pH 9
same,"antimicrobial efficacy in words, gram-negative",[1]; [13],shows antimicrobial efficacy
same,Gram Positive Referenced Microbial Activity,[2]; [5],1.6
same,Gram Positive Referenced Microbial Activity,[2]; [6],0.7
same,Gram Positive Referenced Microbial Activity,[2]; [7],1.3
same,Gram Positive Referenced Microbial Activity,[2]; [8],1.0
same,Gram Positive Referenced Microbial Activity,[2]; [9],1.2
same,Gram Positive Referenced Microbial Activity,[2]; [10],0.2
same,Gram Positive Referenced Microbial Activity,[2]; [11],0.2
same,Gram Positive Referenced Microbial Activity,[2]; [12],0.2
same,Gram Positive Referenced Microbial Activity,[2]; [4],1.0
same,"antimicrobial efficacy in words, gram-positive",[2]; [13],shows antimicrobial efficacy
same,Gram Positive Referenced Microbial Activity,"[2]; compound 0.5 wt %, Surfonic L 24-9 1 wt %, 5 wt % DPGME, water, pH 4.5, aged 14 days",1.1
same,Gram Positive Referenced Microbial Activity,"[2]; compound 0.5 wt %, Surfonic L 24-9 1 wt %, 5 wt % DPGME, water, pH 4.5, not aged",1.0
CCCCCCCCCNC(=O)[C@@H](N)Cc1c[nH]c2ccccc12 [Synthetic Example 3],Gram Negative Referenced Microbial Activity,[1]; [4],2.2
same,Gram Positive Referenced Microbial Activity,[2]; [4],0.3
CCCCCCCCNC(=O)[C@@H](N)Cc1ccccc1 [Synthetic Example 5],"antimicrobial benefit in words, gram-negative",[1],demonstrate meaningful gram-negative activity
same,Gram Negative Referenced Microbial Activity,[1]; [3],≥3.9
same,"antimicrobial benefit in words, gram-positive",[2],shows improvement against gram-negative and gram-positive bacteria
same,Gram Positive Referenced Microbial Activity,[2]; [3],0.7
CCN(C(=O)C(N)Cc1ccccc1)C1CCCCC1 (stereo not drawn) [Synthetic Example 6],"antimicrobial benefit in words, gram-negative",[1],demonstrate meaningful gram-negative activity
same,Gram Negative Referenced Microbial Activity,[1]; [3],2.7
same,Gram Positive Referenced Microbial Activity,[2]; [3],0.2
CCCCCCCCCCCCNC(=O)[C@@H](N)Cc1ccccc1 [Synthetic Example 7],"antimicrobial benefit in words, gram-negative",[1],fail to show any meaningful benefit
same,Gram Negative Referenced Microbial Activity,[1]; [3],0.1
same,"antimicrobial benefit in words, gram-positive",[2],fail to show any meaningful benefit
same,Gram Positive Referenced Microbial Activity,[2]; [3],0.1
